Measurements as given in patent publication US20260224475A1, “MULTI-COMPONENT INTRAVAGINAL RING” (priority 2023, published 2026).
Like-named read-outs stand apart in the source and are kept apart here.

Legend:
human sperm [1] = experiment: Sperm motility assay; format: cell-based; settings: for Average Motility Reduction: average of nine 3-API checkerboard combinations containing the named API at this dose
Procedure: Fresh human sperm samples were obtained the day of the experiment. 100 mM stock solutions of each API in saline were prepared in advance. Immediately prior to the experiment, solutions of each API concentration to be tested were prepared via dilution with saline. These include solutions of multiple APIs added together.
The effect of each API on sperm motility and viability was determined using human donors, adding 200 μL of API's diluted in sterile saline to 50 μL of fresh semen. For motility assessments, the incubation mixture was incubated for 5 minutes and then 100 sperm were counted under the microscope by two andrology-trained researchers and classified as either non-motile or motile. If motile, the sperm were further classified according to the nature of their motility—from barely twitching with no forward progression to progressively motile. Each experiment was repeated at least three times on different days using different donors to account for natural variations in sperm properties.
The % motility for each experimental condition was calculated by normalizing the fraction of motile sperm in the experimental groups to the fraction of motile sperm in the saline control treated group, setting 100% to the average fraction of motile sperm from control experiments. For example, the % motility at concentration c would be:
Once % motility data was obtained, the synergy was measured with Compusyn software. See Chou et al., CompuSyn for drug combinations: PC software and user's guide: a computer program for quantitation of synergism and antagonism in drug combinations, and the determination of IC50. ED50 and LD50 values, which is incorporated herein by reference in its entirety. Motility data for individual API concentration as well as all double and triple API solutions was entered into the program and analyzed according to the Chou-Talalay Median Effect Principle.
Next, the synergy between each of the APIs was tested to determine if there were any synergistic effects between compounds which would allow for reduced dosages. Each of the three possible two-compound combinations were tested, followed by the combination of all three APIs. […] Synergy was calculated with Compusyn using the Chou-Talalay Median Effect approach and represented as a CI (Combination Index) value. […] The smaller the CI value for a combination, the greater the degree of synergy.
After the two-API combinations were complete, the full three-way synergy was tested using a 3×3×3 checkerboard style assay to test all 27 permutations of three chosen concentrations for each of the three APIs.
From the resulting data, the estimated effects of each of the individual API were isolated by averaging % reduction in motility and the CI values for each of the API concentrations tested. With this 3×3×3 checkerboard assay, each single concentration was tested against nine permutations of the other two APIs, meaning that each cell in Table 4 represents the average of the nine combinations involving the specified API concentration.
Synergy was calculated utilizing the Chou-Talalay median effect principle and Compusyn software which quantifies synergy as a combination index (CI) for each combination. A CI<1 signifies synergy, a CI>1 signifies antagonism and a CI=1 signifies a purely additive effect.

human sperm [2] = experiment: Sperm-Cervical Mucus Penetration Test (SMPT) in methylcellulose; format: cell-based
HIV-1BaL = experiment: MAGI assay, anti-HIV-1BaL activity in TZMbl cells; format: cell-based; settings: TZM-bl, read-out: EC50 (95% confidence interval)
Procedure: MAGI assay was performed to test anti-HIV-1BaL activity. […] Virus controls containing HIV-1BaL in saline were incubated under the same conditions. Following incubation, API-HIV-1BaL mixture was diluted 10-fold and added to TZMbl cells. Following 72-hour incubation, the cells were washed and stained with X-gal and fixed. […] Infected cells were counted using CTL instrument.

HSV-2 G = experiment: HSV-2 plaque reduction assay; format: cell-based; settings: Human alphaherpesvirus 2, single API, 30 min pre-incubation with HSV-2 G in saline, read-out: EC50 (95% confidence interval)
Procedure: The HSV-2 plaque reduction assay was performed to test the anti-HSV-2 activity of ZA, CS and LA. […] Virus controls containing HSV-2 in saline were incubated under the same conditions. After incubation all dilutions and controls were diluted 1/10 in DMEM and tittered using the plaque assay. FIG. 12 and Table 10 show the results. […] The data represented the average of two independent experiments. In Table 10, the molar ratio of CS:LA:ZA in ZS-CA-LA is 1:20:100.

N. gonorrhoeae = experiment: Minimal cidal concentration (MCC); format: cell-based
G. vaginalis = experiment: Minimal cidal concentration (MCC); format: cell-based; settings: 30 minutes exposure; >3 log decrease in CFU considered cidal
C. trachomatis = experiment: Bactericidal activity against C. trachomatis (inclusion count in HeLa cells); format: cell-based; settings: for inhibition of C. trachomatis infection (in words): absence or presence of 2% VF and 20% SF, 2 hours at room temperature, LA 80 mM
Procedure: C. trachomatis was incubated with actives ±2% VF and 20% SF for 2 hours at room temperature. The mixtures were serially diluted 1/10 in SPG solution, applied on HeLa cells in triplicate. Images were acquired using the Cytation-5 instrument and the inclusion count was analyzed using the Gen5 software in the Cytation-5. Control conditions included HeLa cells challenged with C. trachomatis in the absence of the actives. (FIG. 15).

Ectocervical explants = settings: for Non-toxic concentrations in ectocervix MTT and histology 24 hr: single treatment
Procedure: Kruskal-Wallis test with Dunn's multiple comparison) (FIG. 22).
In FIG. 23, ectocervical explants were incubated with the selected concentrations of the APIs for 24 hr in the presence or absence of 5% VF. Explants were fixed, paraffin embedded, sectioned and stained with H&E.
Ectocervical explants were exposed to the APIs 24 hr in the presence or absence of 5% VF. Supernatants were collected and analyzed for pro-inflammatory cytokines.

lactobacillus = experiment: Non-cidal concentrations in lactobacillus (MCC 30 min); format: cell-based
VEC-100 tissue [3] = experiment: VEC-100 tissue, repeated exposure (1 hr daily for 5 days; viability, TEER); format: cell-based; settings: for Non-toxic concentrations in VEC-100 model TEER and LDH 5 daily exposures: multiple treatments
VEC-100 tissue [4] = tested on: VEC-100 tissue
Procedure: VEC-100 tissues were incubated with APIs for 24 hr. Tissue viability was analyzed by MTT and LDH assay and TEER measurements were recorded.

What does the source list for `CC(O)C(=O)O` (racemic) [LA, lactic acid]?
Average Motility Reduction (human sperm [1]; Dose 1 (CS 2.95, ZA 4.75, LA 10.26 mM)): 54.75%; Average Motility Reduction (human sperm [1]; Dose 2 (CS 3.94, ZA 6.34, LA 13.70 mM)): 70.74%; Average Motility Reduction (human sperm [1]; Dose 3 (CS 5.90, ZA 9.51, LA 20.54 mM)): 91.84%; EC50 (human sperm [1]; Homo sapiens, Sperm, 5 min, single API (CS/ZA/LA study), saline, 5 min with fresh semen, % motility vs saline control): 20.5 mM; EC90 (human sperm [1]; Homo sapiens, Sperm, 5 min, single API (CS/ZA/LA study), saline, 5 min with fresh semen, % motility vs saline control, read-out: EC90): 28.7 mM; EC90 (human sperm [1]; Homo sapiens, Sperm, Table 16, concentration of the named API in the CS + ZL + LA combination (cf. Table 7), read-out: Anti-Sperm concentrations Total motility (EC90)): 21 mM; EC50 (human sperm [1]; Homo sapiens, Sperm, single API (CS/ZL/LA study)): 21 mM; EC90 (human sperm [1]; Homo sapiens, Sperm, single API (CS/ZL/LA study), read-out: EC90): 29 mM; EC90 (human sperm [1]; Homo sapiens, Sperm, single API, read-out: Reduction of Sperm Motility EC90 [95% CI] (concentration to inhibit total sperm motility)): 29 mM; MIC (concentration to inhibit progressive sperm motility) (human sperm [1]; single API): 20 mM; EC90 (human sperm [2]; Homo sapiens, Sperm, 0.5 h, single API, 1% methylcellulose, 30 minutes, read-out: Inhibition of Sperm Mucus Penetration EC90 [95% CI] (Migration of vanguard sperm in methyl cellulose spiked with API)): 5 mM; EC90 (human sperm [2]; Homo sapiens, Sperm, Table 16, concentration of the named API in the CS + ZL + LA combination (cf. Table 7), read-out: Anti-Sperm concentrations Sperm-mucus penetration (EC90)): 1.5 mM; EC50 (HIV-1BaL): 2.5 mM; EC50 (HSV-2 G): 0.16 mM; MCC 10% AB Serum (N. gonorrhoeae): 111 mM; MCC 30% AB Serum (N. gonorrhoeae): 111 mM; MCC (N. gonorrhoeae; 30 minutes exposure, >3 log decrease in CFU considered cidal): 111 mM; MCC No Serum (N. gonorrhoeae): 111 mM; MCC (G. vaginalis): 111 mM; anti-C. trachomatis activity (in words) (C. trachomatis; LA concentrations lower than 80 mM): no activity was observed; inhibition of C. trachomatis infection (in words) (C. trachomatis): significantly inhibited infection; Ectocervix: single exposure (MTT, Histology, CC) 24 h, 5% VF (Ectocervical explants; 111 mM): No Tox; Ectocervix: single exposure (MTT, Histology, CC) 24 h, No VF (Ectocervical explants; 111 mM): No Tox; Ectocervix: single exposure (MTT, Histology, CC) 24 h, 5% VF (Ectocervical explants; 222 mM): No Tox; Ectocervix: single exposure (MTT, Histology, CC) 24 h, No VF (Ectocervical explants; 222 mM): No Tox; Non-toxic concentrations in ectocervix MTT and histology 24 hr (Ectocervical explants): 222 mM; Non-cidal concentrations in lactobacillus MCC 30 min (lactobacillus): 222 mM; VEC-100 single exposure (MTT, TEER and LDH) day 1-5 24 h No VF (VEC-100 tissue [3]; 22 mM): No Tox; Non-toxic concentrations in VEC-100 model TEER and LDH 5 daily exposures (VEC-100 tissue [3]): 22 mM; concentration up to which exposure alone did not induce toxicity (VEC-100 tissue [4]; single active, 24 h single exposure, summary of ectocervix and VEC-100 findings): up to 222 mM; Non-toxic concentrations in VEC-100 model TEER and LDH 24 h (VEC-100 tissue [4]; single treatment): 222 mM; Non-toxic concentrations based on rat vaginal irritation study 10 days exposure (rat, in vivo, 10 days): 200 mM

Which EC90 (human sperm [1]; Table 16, concentration of the named API in the CS + ZL + LA combination (cf. Table 7), read-out: Anti-Sperm concentrations Total motility (EC90)) does the source give for `CC(O)C(=O)[O-].CC(O)C(=O)[O-].[Zn+2]` (stereo not shown) [ZL, zinc lactate] here?
Its EC90 is 22 mM.

What about the EC90 (human sperm [1]; Table 18, concentration of the named API in the CS + ZL + LA combination, read-out: Anti-Sperm concentrations Total motility (EC90)) of the same compound?
The EC90 was 22 mM.

And the “MIC (concentration to inhibit progressive sperm motility)” value (human sperm [1]; single API)?
The value was 30 mM.

What about the EC50 (human sperm [1]; single API (CS/ZL/LA study)) of the same compound?
The EC50 was 45 mM.

What about the EC90 (human sperm [1]; single API (CS/ZL/LA study), read-out: EC90) of the same compound?
The EC90 was 94 mM.

And the EC90 (human sperm [1]; single API, read-out: Reduction of Sperm Motility EC90 [95% CI] (concentration to inhibit total sperm motility))?
Its EC90 is 94 mM.

What about the EC90 (human sperm [2]; Table 16, concentration of the named API in the CS + ZL + LA combination (cf. Table 7), read-out: Anti-Sperm concentrations Sperm-mucus penetration (EC90)) of the same compound?
Its EC90 is 5 mM.

And the EC90 (human sperm [2]; Table 18, concentration of the named API in the CS + ZL + LA combination, read-out: Anti-Sperm concentrations Sperm-mucus penetration (EC90))?
Its EC90 is 5 mM.

What about the EC90 (human sperm [2]; single API, 1% methylcellulose, 30 minutes, read-out: Inhibition of Sperm Mucus Penetration EC90 [95% CI] (Migration of vanguard sperm in methyl cellulose spiked with API)) of the same compound?
The EC90 was 13 mM.

And the “MCC 10% AB Serum” value (N. gonorrhoeae)?
Its value is >100 mM.

What about the “MCC 30% AB Serum” value (N. gonorrhoeae) of the same compound?
The value was >100 mM.

And the “MCC No Serum” value (N. gonorrhoeae)?
The value was >100 mM.

What about the “inhibitory activity (in words)” value (N. gonorrhoeae; ± human serum) of the same compound?
The value was “not inhibitory”.

And the “inhibition of C. trachomatis infection (in words)” value (C. trachomatis)?
Its value is “exception”.

What about the “Ectocervix: single exposure (MTT, Histology, CC) 24 h, 5% VF” value (Ectocervical explants; 25 mM) of the same compound?
The value was “No Tox”.

And the “Ectocervix: single exposure (MTT, Histology, CC) 24 h, No VF” value (Ectocervical explants; 25 mM)?
Its value is “No Tox”.

What about the “Ectocervix: single exposure (MTT, Histology, CC) 24 h, 5% VF” value (Ectocervical explants; 50 mM) of the same compound?
Its value is “No Tox”.

What about the “Ectocervix: single exposure (MTT, Histology, CC) 24 h, No VF” value (Ectocervical explants; 50 mM) of the same compound?
The value was “No Tox”.

And the “Ectocervix: single exposure (MTT, Histology, CC) 24 h, 5% VF” value (Ectocervical explants; 100 mM)?
The value was “No Tox”.

What about the “Ectocervix: single exposure (MTT, Histology, CC) 24 h, No VF” value (Ectocervical explants; 100 mM) of the same compound?
The value was “No Tox”.

What about the “Non-toxic concentrations in ectocervix MTT and histology 24 hr” value (Ectocervical explants) of the same compound?
Its value is 100 mM.

What about the “VEC-100 single exposure (MTT, TEER and LDH) day 1-5 24 h No VF” value (VEC-100 tissue [3]; 10 mM) of the same compound?
Its value is “No Tox”.

What about the “VEC-100 single exposure (MTT, TEER and LDH) day 1-5 24 h No VF” value (VEC-100 tissue [3]; 21 mM) of the same compound?
The value was “No Tox”.

What about the “Non-toxic concentrations in VEC-100 model TEER and LDH 5 daily exposures” value (VEC-100 tissue [3]) of the same compound?
Its value is 21 mM.

What about the “Non-toxic concentrations based on rat vaginal irritation study 10 days exposure” value (10 days exposure) of the same compound?
The value was 50 mM.

For Triton [reference compound], which “VEC-100 single exposure (MTT, TEER and LDH) day 1-5 24 h No VF” value (VEC-100 tissue [3]; control, concentration not given) is on record?
The value was “Tox”.
